The target in experiment [1] is T1, human ETB receptor (Homo sapiens, UniProt P24530).
T1 construct: expressed in transfected cells; host or cells: COS7 cells
T1 sequence (P24530 27-442): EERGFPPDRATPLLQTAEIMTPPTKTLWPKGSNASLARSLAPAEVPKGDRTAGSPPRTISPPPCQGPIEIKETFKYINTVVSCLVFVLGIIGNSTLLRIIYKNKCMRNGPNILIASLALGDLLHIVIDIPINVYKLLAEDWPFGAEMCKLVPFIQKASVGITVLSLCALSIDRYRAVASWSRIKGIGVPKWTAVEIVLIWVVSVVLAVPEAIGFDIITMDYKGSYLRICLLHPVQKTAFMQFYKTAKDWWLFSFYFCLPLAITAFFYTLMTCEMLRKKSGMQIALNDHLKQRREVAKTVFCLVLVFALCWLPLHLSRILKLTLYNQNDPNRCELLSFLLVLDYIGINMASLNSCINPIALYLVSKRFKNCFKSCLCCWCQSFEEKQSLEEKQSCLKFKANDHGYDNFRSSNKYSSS
The experiment is described as follows: Binding Test #2: inhibition of 125I-ET-1 binding to ETB receptors (transfected COS7 cell membranes). An excerpt: (§1) Compounds that are potential endothelin antagonists are identified by testing their ability to compete with ^125I-labeled ET-1 for binding to human ETA receptors or ETB receptors present on isolated cell membranes. The effectiveness of the test compound as an antagonist or agonist of the biological tissue response of endothelin can also be assessed by measuring the effect on endothelin induced contraction of isolated rat thoracic aortic rings. The ability of the compounds to act as antagonists or agonists for ETB receptors can be assess by testing the ability of the compounds are to inhibit endothelin-1 induced prostacyclin release from cultured bovine aortic endothelial cells.
B. Endothelin Binding Inhibition—Binding Test #2: Inhibition of Binding to ETB Receptors
COS7 cells were transfected with DNA encoding the ETB receptor, The resulting cells, which express the human ETB receptor, were grown to confluence in T-150 flasks. Membrane was prepared as described above. The binding assay was performed as described above using the membrane preparation diluted with binding buffer to a concentration of 1 μg/50 μl.
Briefly, the COS7 cells, described above, that had been transfected with DNA encoding the ETB receptor and express the human ETB receptor on their surfaces were grown to confluence in T-1 75 flasks. Cells from multiple flasks were collected by scraping, pooled and centrifuged for 10 min at 190×g. The cells were resuspended in phosphate buffered saline (PBS) containing 10 mM EDTA using a Tenbroeck homogenizer. The suspension was centrifuged at 4° C. 57,800 X g for 15 min, the pellet was resuspended in 5 ml of buffer A (5mM HEPES buffer, pH 7.4 containing aprotinin (100 KIU/ml)) and then frozen and thawed once. Five ml of Buffer B (5 mM HEPES Buffer, pH 7.4 containing 10 mM MnCl2 and 0.001% deoxyribonuclease Type 1) was added, the suspension mixed by inversion and then incubated at 37° C. for 30 minutes. The mixture was centrifuged at 57,800×g as described above, the pellet washed twice with buffer A and then resuspended in buffer C (30 mM HEPES buffer, pH 7.4 containing aprotinin (100 KIU/ml) to give a final protein concentration of 2 mg/ml.
The binding assay was performed as described above using the membrane preparation diluted to give 1 μg/50 μl of binding buffer.

The target in experiment [2] is T2, human ETA receptors (Homo sapiens, UniProt P25101).
T2 construct: endogenous in cells; host or cells: TE 671 cells (ATCC HTB 139)
T2 sequence (P25101 21-427): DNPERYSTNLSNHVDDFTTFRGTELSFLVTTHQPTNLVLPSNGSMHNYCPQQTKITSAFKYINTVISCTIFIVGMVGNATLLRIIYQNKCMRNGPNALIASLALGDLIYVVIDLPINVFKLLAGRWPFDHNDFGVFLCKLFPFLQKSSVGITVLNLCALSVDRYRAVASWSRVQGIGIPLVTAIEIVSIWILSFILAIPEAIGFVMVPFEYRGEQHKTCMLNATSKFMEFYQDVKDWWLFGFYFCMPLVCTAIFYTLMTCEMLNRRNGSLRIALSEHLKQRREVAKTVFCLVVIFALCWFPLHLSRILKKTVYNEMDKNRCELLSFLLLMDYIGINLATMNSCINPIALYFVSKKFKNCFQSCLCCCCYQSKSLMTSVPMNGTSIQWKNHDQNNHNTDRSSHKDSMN
The experiment is described as follows: Binding Test #1: inhibition of 125I-ET-1 binding to ETA receptors (TE 671 cell membranes).
From the text: as §1
A. Endothelin Binding Inhibition—Binding Test #1: Inhibition of Binding to ETA Receptors
TE 671 cells (ATCC Accession No. HTB 139) express ETA receptors. These cells were grown to confluence in T-175 flasks. Cells from multiple flasks were collected by scraping, pooled and centrifuged for 10 min at 190×g. The cells were resuspended in phosphate buffered saline (PBS) containing 10 mM EDTA using a Tenbroeck homogenizer. The suspension was centrifuged at 4° C. at 57,800×g for 15 min, the pellet was resuspended in 5 ml of buffer A (5 mM HEPES buffer, pH 7.4 containing aprotinin (100 KIU/ml)) and then frozen and thawed once. 5 ml of Buffer B (5 mM HEPES Buffer, pH 7.4 containing 10 mM MnCl2 and 0.001% deoxyribonuclease Type 1) was added, the suspension mixed by inversion and then incubated at 37° C. for 30 minutes. The mixture was centrifuged at 57,800×g as described above, the pellet washed twice with buffer A and then resuspended in buffer C (30 mM HEPES buffer, pH 7.4 containing aprotinin (100 KIU/ml) to give a final protein concentration of 2 mg/ml and stored at −70° C. until use.
The membrane suspension was diluted with binding buffer (30 mM HEPES buffer, pH 7.4 containing 150 mM NaCl, 5mM MgCl2, 0.5% Bacitracin) to a concentration of 8 μg/50 μl. ^125I-endothelin-1 (3,000 cpm, […]) was added to 50 μL of either: (A) endothelin-1 (for non specific binding) to give a final concentration 80 nM); (B) binding buffer (for total binding); or (C) a test compound (final concentration 1 nM to 100 μM). The membrane suspension (50 μL), containing up to 8 μg of membrane protein, was added to each of (A), (B), or (C). Mixtures were shaken, and incubated at 4° C. for 16-18 hours, and then centrifuged at […] for 25 min at 2,500×g. Alternatively, the incubation was conducted at 24° C. […] This, must be kept in mind when comparing IC50 concentrations among compounds provided herein.
The supernatant, containing unbound radioactivity, was decanted and the pellet counted on a Genesys multiwell gamma counter. The degree of inhibition of binding (D) was calculated according to the following equation: [formula]
Each test was generally performed in triplicate.

Where [3] appears, read: Table 1, incubation at 4° C., read-out: ETB.
Where [4] appears, read: Table 1, incubation at 4° C., read-out: ETA.
Where [5] appears, read: Table 1, † incubation at 24° C., read-out: ETB.
[6] abbreviates: Table 1, † incubation at 24° C., read-out: ETA.
Where [7] appears, read: Table 2, incubation at 4° C., read-out: ETB.
Where [8] appears, read: Table 2, incubation at 4° C., read-out: ETA.

Like-named read-outs stand apart in the source and are kept apart here.

From patent publication US6683103B2, “Sulfonamides for treatment of endothelin-mediated disorders” (Texas Biotechnology Corporation, priority 1997, dated 2004) come the findings set out here.

Consider `Cc1noc(NS(=O)(=O)c2c(C)sc3ccccc23)c1Br` [N-(4-bromo-3-methyl-5-isoxazolyl)-2-methylbenzo[b]thiophene-3-sulfonamide], for which the values for the IC50 in experiment [1] (setting [3]) and in experiment [2] (setting [4]) were 3500 nM and 48.6 nM, respectively.
In the case of `Cc1noc(NS(=O)(=O)c2cccn2-c2ccc(-c3ccccc3)cc2)c1Br` [(4-bromo-3-methyl-5-isoxazolyl)-1-(4′-biphenyl)pyrrole-2-sulfonamide], the IC50 in experiment [1] (setting [3]) came to 7840 nM; in experiment [2] (setting [4]) it was 9170 nM.
Turning to `Cc1noc(NS(=O)(=O)c2c(C(=O)O)n(C)c3ccccc23)c1Br` [N-(4-bromo-3-methyl-5-isoxazolyl)-2-carboxyl-1-methylidole-3-sulfonamide], the IC50 in experiment [1] (setting [5]) is 104000 nM; in experiment [2] (setting [6]) it was 590 nM.
For `Cc1ccc(CC(=O)c2sccc2S(=O)(=O)Nc2onc(C)c2Cl)c(C)c1` [N-(4-chloro-3-methyl-5-isoxazolyl)-2-(2,4-dimethylphenylacetyl)thiophene-3-sulfonamide], in that order: 4800 nM and 0.4 nM.
As to `Cc1noc(NS(=O)(=O)c2ccsc2C(=O)O)c1Br` [N-(4-Bromo-3-methyl-5-isoxazolyl)-2-(carboxyl)thiophene-3-sulfonamide], the figures for the IC50 in experiment [1] (setting [3]) and in experiment [2] (setting [4]) were around 67000 nM and around 600 nM, respectively.
As for `Cc1noc(NS(=O)(=O)c2ccccc2-c2ccccc2)c1Br` [N-(4-bromo-3-methyl-5-isoxazolyl)-2-biphenylsulfonamide], the IC50 in experiment [1] (setting [7]) is 8540 nM; in experiment [2] (setting [8]), 1.27 nM; in experiment [2] (read-out: IC50 for ETA receptors) it was around 1.6 nM.
Take `Cc1noc(NS(=O)(=O)c2ccsc2C(=O)OCCc2ccc3c(c2)OCO3)c1Cl` [N-(4-chloro-3-methyl-5-isoxazolyl)-2-[2-(3,4-methylenedioxyphenyl)ethoxycarbonyl-3-sulfonamide]: the results for the IC50 in experiment [1] (setting [5]) and in experiment [2] (setting [6]) were 6200 nM and 230 nM, respectively.
Take `Cc1noc(NS(=O)(=O)c2ccc(-c3ccccc3)s2)c1C` [N-(3,4-dimethyl-5-isoxazolyl-5-phenylthiophen-2-sulfonamide]: the IC50 turned out to be 1290 nM in experiment [1] (setting [3]) and 2550 nM in experiment [2] (setting [4]).
`Cc1noc(NS(=O)(=O)c2cc(CCc3ccccc3)cs2)c1Br` [N-(4-bromo-3-methyl-5-isoxazolyl)-4-(phenethyl)thiophene-2-sulfonamide]: the IC50 was 3970 nM in experiment [1] (setting [3]) and 6640 nM in experiment [2] (setting [4]).
In the case of `Cc1noc(NS(=O)(=O)c2ccc(-c3cc(C(F)(F)F)cc(C(F)(F)F)c3)s2)c1Br` [N-(4-bromo-3-methyl-5-isoxazolyl)-5-[3,5-bis(triflouromethyl)phenyl]thiophene-2-sulfonamide], the IC50 in experiment [1] (setting [3]) was found to be 12000 nM; in experiment [1] (setting [5]), 15500 nM; in experiment [2] (setting [4]), 794 nM; in experiment [2] (setting [6]), 5900 nM.
For the compound `Cc1noc(NS(=O)(=O)c2ccsc2C(=O)Nc2ccccc2)c1C` [N-(3,4-dimethyl-5-isoxazolyl)-2-(N-phenylaminocarbonyl)thiophene-3-sulfonamide], the IC50 in experiment [1] (setting [3]) was around 170000 nM; in experiment [2] (setting [4]), 18.2 nM.
With `Cc1cc2c(cc1C=CCc1sccc1S(=O)(=O)Nc1onc(C)c1Br)OCO2` [N-(4-bromo-3-methyl-5-isoxazolyl)-2-[2-methyl-4,5-(methylenedioxy)cinnamyl]thiophene-3-sulfonamide], the IC50 in experiment [1] (setting [5]) came to 3280 nM; in experiment [2] (setting [6]), 80.4 nM.
As for `Cc1ccc(NC(=O)c2sccc2S(=O)(=O)Nc2onc(C)c2Br)cc1` [N-(4-bromo-3-methyl-5-isoxazolyl)-2-[-(4-tolulylaminocarbonyl]thiophene-3-sulfonamide], the IC50 in experiment [1] (setting [3]) is 1670 nM; in experiment [2] (setting [4]), below 10 nM.
For `Cc1noc(NS(=O)(=O)c2ccc(Br)s2)c1Br` [N-(4-bromo-3-methyl-5-isoxazolyl)-5-bromothiophene-2-sulfonamide], in that order: 2260 nM and 314 nM.
With `Cc1noc(NS(=O)(=O)c2ccsc2C(=O)c2ccc3c(c2)OCO3)c1Br` [N-(4-bromo-3-methyl-5-isoxazolyl)-2-[(3,4-methylenedioxy)benzoyl]thiophene-3-sulfonamide], the IC50 in experiment [1] (setting [5]) is 15000 nM; in experiment [2] (setting [6]) it was 2000 nM.
`Cc1ccc(NC(=O)c2c(S(=O)(=O)Nc3onc(C)c3Cl)c3ccccc3n2C)cc1` [N-(4-chloro-3-methyl-5-isoxazolyl)-2-[(4-tolyl)aminocarbonyl]-1-methylindole-3-sulfonamide]: the IC50 in experiment [1] (setting [5]) turned out to be 14700 nM; in experiment [2] (setting [6]), 31300 nM.
For the compound `Cc1noc(NS(=O)(=O)c2cccc(-c3ccccc3)c2)c1Cl` [N-(4-chloro-3-methyl-5-isoxazolyl)-3-biphenylsulfonamide], the results for the IC50 in experiment [1] (setting [7]), in experiment [1] (read-out: IC50 for ETB receptors) and in experiment [2] (setting [8]) were 793 nM, around 793 nM and above 30 nM, respectively.
`Cc1cc(S(=O)(=O)Nc2onc(C)c2Br)c(C)o1` [N-(4-bromo-3-methyl-5-isoxazolyl)-2,5-dimethylfuran-3-sulfonamide]: the figures for the IC50 in experiment [1] (setting [3]) and in experiment [2] (setting [4]) were 36500 nM and 460 nM, respectively.
For `Cc1noc(NS(=O)(=O)c2sccc2Oc2ccccc2)c1Br` [N-(4-bromo-3-methyl-5-isoxazolyl)-3-phenoxythiophene-2-sulfonamide], the figures for the IC50 in experiment [1] (setting [3]) and in experiment [2] (setting [4]) were 3460 nM and 103 nM, respectively.
Take `Cc1noc(NS(=O)(=O)c2ccsc2NC(=O)Nc2sccc2S(=O)(=O)Nc2onc(C)c2Br)c1Br` [N,N′-bis{3-[(4-bromo-3-methyl-5-isoxazolyl)aminosulfonyl)thien-2-yl} urea]: the IC50 was found to be 290 nM in experiment [1] (setting [3]), 1190 nM in experiment [1] (setting [5]), 69.2 nM in experiment [2] (setting [4]) and 295 nM in experiment [2] (setting [6]).
